Laboratory results: PubChem BioAssay (NCI)
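Cultured in 96-well plates, cells were exposed to test compound for 48 hours across five concentrations. GI50 = concentration required for 50% inhibition of growth. At the TGI there is no net growth.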

Legend:
Experiment in all cases: NCI-60 cell line screen, 48 h
IGROV1 ovarian = tested on: IGROV1 ovarian
MOLT-4 leukemia = tested on: MOLT-4 leukemia
M14 melanoma = tested on: M14 melanoma
OVCAR-4 ovarian = tested on: OVCAR-4 ovarian
NCI-H460 lung = tested on: NCI-H460 lung
HCT-116 colon = tested on: HCT-116 colon
ACHN renal = tested on: ACHN renal
LOX IMVI melanoma = tested on: LOX IMVI melanoma
MDA-MB-435 = tested on: MDA-MB-435
COLO 205 colon = tested on: COLO 205 colon

Compound	GI50 (IGROV1 ovarian)	TGI (IGROV1 ovarian)	GI50 (MOLT-4 leukemia)	TGI (MOLT-4 leukemia)	GI50 (M14 melanoma)	TGI (M14 melanoma)	GI50 (OVCAR-4 ovarian)	TGI (OVCAR-4 ovarian)	GI50 (NCI-H460 lung)	TGI (NCI-H460 lung)	GI50 (HCT-116 colon)	TGI (HCT-116 colon)	GI50 (ACHN renal)	TGI (ACHN renal)	GI50 (LOX IMVI melanoma)	TGI (LOX IMVI melanoma)	GI50 (MDA-MB-435)	TGI (MDA-MB-435)	GI50 (COLO 205 colon)	TGI (COLO 205 colon)
Cn1cc(-c2cnn3c(N)c(Br)c(C4CCCNC4)nc23)cn1 (centres undefined)	6.72 µM	> 100 µM	575 nM	23.2 µM	325 nM	16.8 µM	14.6 µM	96.1 µM	6.54 µM	30.7 µM	6.04 µM	24.6 µM	417 nM	> 100 µM	2710 nM	18.9 µM	754 nM	> 57.8 µM	4540 nM	19.8 µM
CC(=O)NNc1nc(C)c(C(/C=C/c2ccccc2O)=N/N=C(N)N)s1		> 100 µM		> 100 µM		> 100 µM		> 100 µM		> 100 µM		> 100 µM		> 100 µM		> 100 µM		> 100 µM		> 100 µM
Nc1nc(/C=C\c2ccccc2)nc(N2CCN(c3ccccc3)CC2)n1	22.9 µM	69.8 µM	36800 nM	> 100 µM	30200 nM	> 100 µM	37.2 µM	> 100 µM	24.5 µM	> 100 µM	13.5 µM	31.7 µM	29200 nM	> 100 µM	19000 nM	40.6 µM	28400 nM	70.2 µM	16400 nM	35.8 µM
Cc1cc(Nc2cc(N3CCN(C)CC3)nc(/C=C/c3ccccc3)n2)n[nH]1	0.0542 µM	1.62 µM	186 nM	> 10 µM	343 nM	> 3.81 µM	0.644 µM	> 10 µM	0.29 µM	> 5.52 µM	0.201 µM	> 10 µM	205 nM	3.92 µM	334 nM	1.51 µM	406 nM	> 5.28 µM	440 nM	> 2.03 µM
Oc1c(Cl)cc(Cl)c2ccc(Cn3cc(-c4ccc(C(F)(F)F)cc4)nn3)nc12	1.41 µM	3.19 µM	825 nM	8.8 µM	1930 nM	5.26 µM	1.43 µM	3.37 µM	18.9 µM	37.3 µM	0.692 µM	2.57 µM	1350 nM	2.67 µM	299 nM	1.11 µM	1760 nM	3.75 µM	1390 nM	3.14 µM
COC(=O)c1cc2c3ccccc3n3c2c(n1)-c1[nH]c2ccccc2c(=O)c1C3	24.6 µM	> 100 µM	5900 nM	> 100 µM	> 100000 nM	> 100 µM	> 100 µM	> 100 µM	> 100 µM	> 100 µM	21 µM	> 100 µM	33600 nM	> 100 µM	> 100000 nM	> 100 µM	> 100000 nM	> 100 µM	> 100000 nM	> 100 µM
O=C1C=CC(=O)c2c(O)c3c(c(O)c21)C[C@H](O)[C@H](O)[C@@H]3O		6.92 µM		> 23.6 µM		3.86 µM		3.45 µM		16.8 µM		1.73 µM		8 µM		4.08 µM		3.13 µM		1.12 µM
CC1(C)CCCC(C)(C2CCC3(C)C2C(O)CC2C4(C)CCC(O)C(C)(C)C4CCC23C)O1 (centres undefined)		> 100 µM		> 100 µM		> 100 µM		> 100 µM		> 100 µM		> 100 µM		> 100 µM		> 100 µM		> 100 µM		> 100 µM
CCOc1ccn(-c2ccc(F)cc2)c(=O)c1C(=O)Nc1ccc(Oc2ccnc(N)c2Cl)c(F)c1	17.3 µM	> 100 µM	5780 nM	59 µM	3740 nM	16 µM	19.1 µM	> 100 µM	4.74 µM	> 87 µM	5.35 µM	21.8 µM	9220 nM	> 89.1 µM	5330 nM	19.3 µM	6270 nM	42.6 µM	2540 nM	5.57 µM
CC1=CC(C)(C)NN1C1=NS(=O)(=O)c2ccccc2N1C		> 100 µM		> 100 µM		> 100 µM		> 100 µM		> 100 µM		> 100 µM		> 100 µM		> 100 µM		> 100 µM		> 100 µM
CC(=O)[C@H]1CCC/C=C/[C@@H]2C[C@H](O)C[C@H]2[C@H](O)/C=C/C(=O)O1	0.803 µM	> 24 µM	321 nM		467 nM	> 25.2 µM	0.434 µM	> 22.2 µM	2.67 µM	> 100 µM	0.337 µM	1.18 µM	674 nM	> 26.4 µM	212 nM	0.633 µM	428 nM	> 100 µM	264 nM	0.631 µM
C=CCC(N[C@@H](CO)c1ccccc1)c1cn(C(=O)OCC)c2ccccc12 (some centres undefined)	23.1 µM	> 100 µM	15500 nM	> 100 µM	18100 nM	34.4 µM	81.5 µM	> 100 µM	26.2 µM	70.1 µM	15.5 µM	29.3 µM	24300 nM	63 µM	16700 nM	32.2 µM	22700 nM	55.9 µM	20100 nM	44.1 µM
CCN(CC)CCCC(C)N/C(=C1\C(=O)NC(=O)\C1=C(/NC(C)CCCN(CC)CC)c1cccc(OC)c1)c1cccc(OC)c1 (centres undefined)	0.844 µM	2.35 µM	312 nM	2.09 µM	932 nM	1.75 µM	0.742 µM	2.2 µM	0.58 µM	2.05 µM	0.45 µM	3.24 µM	393 nM	2.16 µM	676 nM	1.49 µM	803 nM	1.52 µM	728 nM	1.65 µM
O=c1c(Cl)c(Cl)cnn1CCCl		3.85 µM		7.46 µM		11.3 µM		3.14 µM		23.1 µM		17 µM		2.35 µM		14.3 µM		10.6 µM		7.69 µM
